Measurements taken from patent US10905680B2, “Methods of treatment for cholestatic and fibrotic diseases” (Genfit, priority 2016, dated 2021).

Key:
[1] = tested on: Normal Human Cardiac Fibroblasts (ventricle) (NHCF-V); test: TGFβ1-induced expression of α-SMA protein in human cardiac fibroblasts (ELISA); type: cell-based; conditions: concentration of 1 μM; TGFβ1 3 ng/ml, 48 hours
Experimental: NTZ (A) or TZ (B) were added to serum-deprived cardiac fibroblasts (NHCF) 1 hour before the activation with TGFβ1 (3 ng/ml). After 48 hours of incubation, the expression of α-SMA was measured by ELISA. The obtained values were transformed into percentage inhibition over TGFβ1 control. Data are presented as mean (triplicates)±standard deviation (SD). Statistical analyses were performed by one-way ANOVA followed by Bonferroni post-hoc tests, using Sigma Plot 11.0 software. [*: p<0.05; **: p<0.01; ***: p<0.001 (comparison versus TGFβ1 3 ng/mL group)].
The Normal Human Cardiac Fibroblasts (ventricle) (NHCF-V) (Lonza) were isolated from normal adult heart tissue. Cells were cultured in Fibroblast Basal Medium (FBM) (Lonza cat # CC-3131) that was supplemented with FGM™-3 BulletKit™ kit (Lonza cat # CC-4525). The complete medium contains 10% fetal bovine serum. For the activation experiments with TGFβ1, the NHCF-V were plated at a density of 6×10^3 cells per well in 96-well plates. The next day, cell-culture medium was removed, and cells were washed with PBS (Invitrogen cat #14190). NHCF were deprived for 24 hours in serum-free, insulin-free and rhFGF-B-free medium. […]
The level of α-SMA was measured using a Sandwich ELISA. […]

[2] = tested on: human renal interstitial fibroblasts (HRIF); test: TGFβ1-induced expression of α-SMA protein in human renal fibroblasts (ELISA); type: cell-based; conditions: TGFβ1 3 ng/ml, 48 hours
Experimental: Serum-deprived Human Renal Interstitial Fibroblasts (HRIF) were preincubated for 1 hour with NTZ (A) or TZ (B) before the activation with the profibrogenic cytokine TGFβ1 (3 ng/ml). After 48 hours of incubation, the expression of α-SMA was measured by ELISA. The obtained values were normalized over TGFβ1 control. Data are presented as mean (quadruplicates)±SEM (Standard Error of Mean). […] For the activation experiments with TGFβ1, the HRIF were plated at a density of 6.5×10^3 cells per well in 384-well plates. The next day, cell culture medium was removed, and cells were washed with PBS (Invitrogen cat #14190). HRIF were deprived for 24 hours in serum-free, and FGS-free medium. For the treatments with NTZ or TZ, the serum-deprived HRIF were preincubated for 1 hour with the compounds followed by addition of the profibrogenic stimuli TGFβ1 (PeproTech cat #100-21, 3 ng/mL) in serum-free, -FGS-free medium for an additional 48 hour period. Finally, the cells were washed with PBS (Invitrogen, cat #14190) before the addition of 30 μl of lysis buffer (CelLytic™ MT reagent; Sigma #C3228). Plates were then incubated for 30 min on ice using a plate shaker, and subsequently stored at −20° C. The level of α-SMA was measured using a Sandwich ELISA. Briefly, the wells of an ELISA plate were first coated with the capture antibody (mouse monoclonal anti-ACTA2, Abnova) at 4° C. overnight. […]

HSC = test: Toxicity assays in HSC; type: cell-based, human; conditions: data not shown

O=C(Nc1ncc([N+](=O)[O-])s1)c1ccccc1O [TZ, 2-hydroxy-N-(5-nitro-2-thiazolyl)benzamide]
antifibrotic effects (α-SMA) in normal human cardiac fibroblasts [1]: significant antifibrotic effects | antifibrotic effects (α-SMA) in TGFβ-activated human renal interstitial fibroblasts [2]: significant and dose-dependent antifibrotic effects | toxicity or apoptosis of HSC (HSC): not due to toxicity or apoptosis
